In patent publication US6960574B2, “Antagonists of RF-amide neuropeptides” (University of Florida, priority 2002, dated 2005):
Peptide text beside a SMILES is read from it. * marks the point of attachment. Dansyl = CN(C)c1cccc2c(S(=O)(=O)*)cccc12

Tested on: receptor labeled by the radioiodinated analogue of 1 (4, [125I]-YLFQPQRF-NH2); neuropeptide FF receptor
Experiment: Competitive radioligand binding against 4 ([125I]Y8F-amide)
Settings: mixture-based positional scanning; difference from averaged radioligand displacement of whole library (0); about 80 a.u. = 10-fold change in Ki

Row | Relative Binding Index (RBI) [a.u.] | Compound
1 | 23 | CN(C)c1cccc2c(S(=O)(=O)N[C@@H](CCCCN)C(=O)N[C@@H](CCCNC(=N)N)C(=O)N[C@@H](CCCNC(=N)N)C(N)=O)cccc12 [Dansyl-KRR-amide] (Dansyl-Lys-Arg-Arg-NH2)
2 | 45 | CN(C)c1cccc2c(S(=O)(=O)N[C@@H](CCCCN)C(=O)N[C@@H](CO)C(=O)N[C@@H](CCCNC(=N)N)C(N)=O)cccc12 [Dansyl-KSR-amide] (Dansyl-Lys-Ser-Arg-NH2)
3 | 30 | C[C@@H](O)[C@H](NC(=O)[C@H](CCCCN)NS(=O)(=O)c1cccc2c(N(C)C)cccc12)C(=O)N[C@@H](CCCNC(=N)N)C(N)=O [Dansyl-KTR-amide] (Dansyl-Lys-Thr-Arg-NH2)
4 | 20 | CC(C)[C@H](NC(=O)[C@H](CCCCN)NS(=O)(=O)c1cccc2c(N(C)C)cccc12)C(=O)N[C@@H](CCCNC(=N)N)C(N)=O [Dansyl-KVR-amide] (Dansyl-Lys-Val-Arg-NH2)
5 | 34 | CN(C)c1cccc2c(S(=O)(=O)N[C@@H](CCCCN)C(=O)N[C@@H](Cc3c[nH]c4ccccc34)C(=O)N[C@@H](CCCNC(=N)N)C(N)=O)cccc12 [Dansyl-KWR-amide] (Dansyl-Lys-Trp-Arg-NH2)
6 | 23 | CN(C)c1cccc2c(S(=O)(=O)N[C@@H](CCCCN)C(=O)N[C@@H](Cc3ccc(O)cc3)C(=O)N[C@@H](CCCNC(=N)N)C(N)=O)cccc12 [Dansyl-KYR-amide] (Dansyl-Lys-Tyr-Arg-NH2)
7 | −81 | CC(C)C[C@H](NS(=O)(=O)c1cccc2c(N(C)C)cccc12)C(=O)N[C@@H](C)C(=O)N[C@@H](CCCNC(=N)N)C(N)=O [Dansyl-LAR-amide] (Dansyl-Leu-Ala-Arg-NH2)
8 | −50 | CC(C)C[C@H](NS(=O)(=O)c1cccc2c(N(C)C)cccc12)C(=O)N[C@@H](CC(=O)O)C(=O)N[C@@H](CCCNC(=N)N)C(N)=O [Dansyl-LDR-amide] (Dansyl-Leu-Asp-Arg-NH2)
9 | −32 | CC(C)C[C@H](NS(=O)(=O)c1cccc2c(N(C)C)cccc12)C(=O)N[C@@H](CCC(=O)O)C(=O)N[C@@H](CCCNC(=N)N)C(N)=O [Dansyl-LER-amide] (Dansyl-Leu-Glu-Arg-NH2)
10 | −33 | CC(C)C[C@H](NS(=O)(=O)c1cccc2c(N(C)C)cccc12)C(=O)N[C@@H](Cc1ccccc1)C(=O)N[C@@H](CCCNC(=N)N)C(N)=O [Dansyl-LFR-amide] (Dansyl-Leu-Phe-Arg-NH2)
11 | −27 | CC(C)C[C@H](NS(=O)(=O)c1cccc2c(N(C)C)cccc12)C(=O)NCC(=O)N[C@@H](CCCNC(=N)N)C(N)=O [Dansyl-LGR-amide] (Dansyl-Leu-Gly-Arg-NH2)
12 | −38 | CC(C)C[C@H](NS(=O)(=O)c1cccc2c(N(C)C)cccc12)C(=O)N[C@@H](Cc1cnc[nH]1)C(=O)N[C@@H](CCCNC(=N)N)C(N)=O [Dansyl-LHR-amide] (Dansyl-Leu-His-Arg-NH2)
13 | −26 | CC[C@H](C)[C@H](NC(=O)[C@H](CC(C)C)NS(=O)(=O)c1cccc2c(N(C)C)cccc12)C(=O)N[C@@H](CCCNC(=N)N)C(N)=O [Dansyl-LIR-amide] (Dansyl-Leu-Ile-Arg-NH2)
14 | −34 | CC(C)C[C@H](NS(=O)(=O)c1cccc2c(N(C)C)cccc12)C(=O)N[C@@H](CCCCN)C(=O)N[C@@H](CCCNC(=N)N)C(N)=O [Dansyl-LKR-amide] (Dansyl-Leu-Lys-Arg-NH2)
15 | −40 | CC(C)C[C@H](NC(=O)[C@H](CC(C)C)NS(=O)(=O)c1cccc2c(N(C)C)cccc12)C(=O)N[C@@H](CCCNC(=N)N)C(N)=O [Dansyl-LLR-amide]
16 | −32 | CSCC[C@H](NC(=O)[C@H](CC(C)C)NS(=O)(=O)c1cccc2c(N(C)C)cccc12)C(=O)N[C@@H](CCCNC(=N)N)C(N)=O [Dansyl-LMR-amide] (Dansyl-Leu-Met-Arg-NH2)
17 | −31 | CC(C)C[C@H](NS(=O)(=O)c1cccc2c(N(C)C)cccc12)C(=O)N[C@@H](CC(N)=O)C(=O)N[C@@H](CCCNC(=N)N)C(N)=O [Dansyl-LNR-amide] (Dansyl-Leu-Asn-Arg-NH2)
18 | −29 | CC(C)C[C@H](NS(=O)(=O)c1cccc2c(N(C)C)cccc12)C(=O)N1CCC[C@H]1C(=O)N[C@@H](CCCNC(=N)N)C(N)=O [Dansyl-LPR-amide] (Dansyl-Leu-Pro-Arg-NH2)
19 | −18 | CC(C)C[C@H](NS(=O)(=O)c1cccc2c(N(C)C)cccc12)C(=O)N[C@@H](CCC(N)=O)C(=O)N[C@@H](CCCNC(=N)N)C(N)=O [Dansyl-LQR-amide] (Dansyl-Leu-Gln-Arg-NH2)
20 | −33 | CC(C)C[C@H](NS(=O)(=O)c1cccc2c(N(C)C)cccc12)C(=O)N[C@@H](CCCNC(=N)N)C(=O)N[C@@H](CCCNC(=N)N)C(N)=O [Dansyl-LRR-amide] (Dansyl-Leu-Arg-Arg-NH2)
21 | −11 | CC(C)C[C@H](NS(=O)(=O)c1cccc2c(N(C)C)cccc12)C(=O)N[C@@H](CO)C(=O)N[C@@H](CCCNC(=N)N)C(N)=O [Dansyl-LSR-amide] (Dansyl-Leu-Ser-Arg-NH2)

Row | Relative Binding Index (RBI) [a.u.] | Compound
22 | −26 | CC(C)C[C@H](NS(=O)(=O)c1cccc2c(N(C)C)cccc12)C(=O)N[C@H](C(=O)N[C@@H](CCCNC(=N)N)C(N)=O)[C@@H](C)O [Dansyl-LTR-amide] (Dansyl-Leu-Thr-Arg-NH2)
23 | −37 | CC(C)C[C@H](NS(=O)(=O)c1cccc2c(N(C)C)cccc12)C(=O)N[C@H](C(=O)N[C@@H](CCCNC(=N)N)C(N)=O)C(C)C [Dansyl-LVR-amide] (Dansyl-Leu-Val-Arg-NH2)
24 | −23 | CC(C)C[C@H](NS(=O)(=O)c1cccc2c(N(C)C)cccc12)C(=O)N[C@@H](Cc1c[nH]c2ccccc12)C(=O)N[C@@H](CCCNC(=N)N)C(N)=O [Dansyl-LWR-amide] (Dansyl-Leu-Trp-Arg-NH2)
25 | −33 | CC(C)C[C@H](NS(=O)(=O)c1cccc2c(N(C)C)cccc12)C(=O)N[C@@H](Cc1ccc(O)cc1)C(=O)N[C@@H](CCCNC(=N)N)C(N)=O [Dansyl-LYR-amide] (Dansyl-Leu-Tyr-Arg-NH2)
26 | −93 | CSCC[C@H](NS(=O)(=O)c1cccc2c(N(C)C)cccc12)C(=O)N[C@@H](C)C(=O)N[C@@H](CCCNC(=N)N)C(N)=O [Dansyl-MAR-amide] (Dansyl-Met-Ala-Arg-NH2)
27 | −62 | CSCC[C@H](NS(=O)(=O)c1cccc2c(N(C)C)cccc12)C(=O)N[C@@H](CC(=O)O)C(=O)N[C@@H](CCCNC(=N)N)C(N)=O [Dansyl-MDR-amide] (Dansyl-Met-Asp-Arg-NH2)
28 | −44 | CSCC[C@H](NS(=O)(=O)c1cccc2c(N(C)C)cccc12)C(=O)N[C@@H](CCC(=O)O)C(=O)N[C@@H](CCCNC(=N)N)C(N)=O [Dansyl-MER-amide] (Dansyl-Met-Glu-Arg-NH2)
29 | −45 | CSCC[C@H](NS(=O)(=O)c1cccc2c(N(C)C)cccc12)C(=O)N[C@@H](Cc1ccccc1)C(=O)N[C@@H](CCCNC(=N)N)C(N)=O [Dansyl-MFR-amide] (Dansyl-Met-Phe-Arg-NH2)
30 | −39 | CSCC[C@H](NS(=O)(=O)c1cccc2c(N(C)C)cccc12)C(=O)NCC(=O)N[C@@H](CCCNC(=N)N)C(N)=O [Dansyl-MGR-amide] (Dansyl-Met-Gly-Arg-NH2)
31 | −50 | CSCC[C@H](NS(=O)(=O)c1cccc2c(N(C)C)cccc12)C(=O)N[C@@H](Cc1c[nH]cn1)C(=O)N[C@@H](CCCNC(=N)N)C(N)=O [Dansyl-MHR-amide] (Dansyl-Met-His-Arg-NH2)
32 | −37 | CC[C@H](C)[C@H](NC(=O)[C@H](CCSC)NS(=O)(=O)c1cccc2c(N(C)C)cccc12)C(=O)N[C@@H](CCCNC(=N)N)C(N)=O [Dansyl-MIR-amide] (Dansyl-Met-Ile-Arg-NH2)
33 | −46 | CSCC[C@H](NS(=O)(=O)c1cccc2c(N(C)C)cccc12)C(=O)N[C@@H](CCCCN)C(=O)N[C@@H](CCCNC(=N)N)C(N)=O [Dansyl-MKR-amide] (Dansyl-Met-Lys-Arg-NH2)
34 | −52 | CSCC[C@H](NS(=O)(=O)c1cccc2c(N(C)C)cccc12)C(=O)N[C@@H](CC(C)C)C(=O)N[C@@H](CCCNC(=N)N)C(N)=O [Dansyl-MLR-amide] (Dansyl-Met-Leu-Arg-NH2)
35 | −44 | CSCC[C@H](NC(=O)[C@H](CCSC)NS(=O)(=O)c1cccc2c(N(C)C)cccc12)C(=O)N[C@@H](CCCNC(=N)N)C(N)=O [Dansyl-MMR-amide] (Dansyl-Met-Met-Arg-NH2)
36 | −43 | CSCC[C@H](NS(=O)(=O)c1cccc2c(N(C)C)cccc12)C(=O)N[C@@H](CC(N)=O)C(=O)N[C@@H](CCCNC(=N)N)C(N)=O [Dansyl-MNR-amide]
37 | −41 | CSCC[C@H](NS(=O)(=O)c1cccc2c(N(C)C)cccc12)C(=O)N1CCC[C@H]1C(=O)N[C@@H](CCCNC(=N)N)C(N)=O [Dansyl-MPR-amide] (Dansyl-Met-Pro-Arg-NH2)
38 | −30 | CSCC[C@H](NS(=O)(=O)c1cccc2c(N(C)C)cccc12)C(=O)N[C@@H](CCC(N)=O)C(=O)N[C@@H](CCCNC(=N)N)C(N)=O [Dansyl-MQR-amide] (Dansyl-Met-Gln-Arg-NH2)
39 | −45 | CSCC[C@H](NS(=O)(=O)c1cccc2c(N(C)C)cccc12)C(=O)N[C@@H](CCCNC(=N)N)C(=O)N[C@@H](CCCNC(=N)N)C(N)=O [Dansyl-MRR-amide] (Dansyl-Met-Arg-Arg-NH2)
40 | −23 | CSCC[C@H](NS(=O)(=O)c1cccc2c(N(C)C)cccc12)C(=O)N[C@@H](CO)C(=O)N[C@@H](CCCNC(=N)N)C(N)=O [Dansyl-MSR-amide] (Dansyl-Met-Ser-Arg-NH2)
41 | −38 | CSCC[C@H](NS(=O)(=O)c1cccc2c(N(C)C)cccc12)C(=O)N[C@H](C(=O)N[C@@H](CCCNC(=N)N)C(N)=O)[C@@H](C)O [Dansyl-MTR-amide] (Dansyl-Met-Thr-Arg-NH2)
